Experimental data published in patent publication US20110046127A1, “Imidazopyridazines for Use as Protein Kinase Inhibitors” (priority 2007, published 2011).

system: T1, PIM-1 or PIM-2; assay: PIM-1 / PIM-2 biochemical assay (ADP Hunter assay kit); parameters: species or system human; settings: tested in either the PIM-1 or the PIM-2 biochemical assay (as appropriate); ATP 100 μM
T1 construct: fused on or other part: C-terminal histidine tag (PIM-1 enzyme); N-terminal histidine tag (PIM-2 enzyme)
From the text: The biochemical assay to measure PIM-1 activity relies on the ADP Hunter assay kit (DiscoveRx Corp., Cat. # 90-0077), that determines the amount of ADP as direct product of the kinase enzyme activity.
The enzyme has been expressed and purified in-house as a recombinant human protein with a C-terminal histidine tag. The protein is active and stable.
(§1) Assay conditions were as indicated by the kit manufacturers with the following adaptations for the kinase activity step: • Kinase assay buffer and assay volume stay as recommended (15 mM HEPES, pH 7.4, 20 mM NaCl, 1 mM EGTA, 0.02% Tween 20, 10 mM MgCl2 and 0.1 mg/ml bovine γ-globulins/75 μl assay volume) • Incubation time and temperature: 60 min at 30° C. • PIM-1 concentration: 50 pg/μl • ATP concentration: 100 μM • PIM-1 substrate peptide: PIMtide (ARKRRRHPSGPPTA) • Peptide concentration: 60 μM • Positive control for kinase activity inhibition: 1-10 μM Staurosporine • DMSO concentration have to stay below 2% during the kinase reaction
Assays were performed in either 96 or 384-well plates. The final outcome of the coupled reactions provided by the kit is the release of the fluorescent product Resorufin and has been measured with a multilabel HTS counter VICTOR V (PerkinElmer) using an excitation filter at 544 nm and an emission filter at 580 nm.
The biochemical assay to measure PIM-2 activity relies on the ADP Hunter assay kit (DiscoveRx Corp., Cat. # 90-0077), that determines the amount of ADP as direct product of the kinase enzyme activity.
The enzyme has been expressed and purified in-house as a recombinant human protein with a N-terminal histidine tag. The protein is active and stable.
as §1, with “mg/ml bovine γ-globulins/20 μl assay” for “mg/ml bovine γ-globulins/75 μl assay”, “and temperature: 30 min at” for “and temperature: 60 min at”, “C. • PIM-2 concentration: 350” for “C. • PIM-1 concentration: 50”, “PIM-2 concentration: 350 pg/μl •” for “PIM-1 concentration: 50 pg/μl •”, “Peptide concentration: 100 μM •” for “Peptide concentration: 60 μM •”

Going from `O=C(Nc1ccccc1)c1cnc2ccc(NCc3ccc(Cl)c(Cl)c3)nn12` [Example 18, 6-(3,4-Dichloro-benzylamino)-imidazo[1,2-b]pyridazine-3-carboxylic acid phenyl-amide] to `O=C(Nc1cccnc1)c1cnc2ccc(NCc3ccc(Cl)c(Cl)c3)nn12` [Example 23, 6-(3,4-Dichloro-benzylamino)-imidazo[1,2-b]pyridazine-3-carboxylic acid pyridin-3-yl-amide], the IC50 rises from 60 nM to 130 nM (2.2-fold).

First: Cc1cc(NCc2ccc(Cl)c(Cl)c2)nn2c(C#Cc3ccccc3)cnc12 [Example 71, (3,4-Dichloro-benzyl)-(8-methyl-3-phenylethynyl-imidazo[1,2-b]pyridazin-6-yl)-amine]
Second: Clc1ccc(CNc2ccc3ncc(C#CCc4ccccc4)n3n2)cc1Cl [Example 73, N-(3,4-dichlorobenzyl)-3-(3-phenylprop-1-ynyl)imidazo[1,2-b]pyridazin-6-amine]
The IC50 of the first is 1.8-fold higher: 5190 nM for the first, 2850 nM for the second.

`COc1ccc(C(=O)Nc2cnc3ccc(NCc4ccc(F)cc4)nn23)cc1` [Example 91, N-[6-(4-Fluoro-benzylamino)-imidazo[1,2-b]pyridazin-3-yl]-4-methoxy-benzamide] and `O=C(Nc1cnc2ccc(NCc3ccc(F)cc3)nn12)c1ccc(O)cc1` [Example 101, N-[6-(4-Fluoro-benzylamino)-imidazo[1,2-b]pyridazin-3-yl]-4-hydroxy-benzamide] are within 1.5-fold of each other in IC50: 310 nM for the first, 410 nM for the second.

`O=C(Nc1ccc(O)cc1)c1cnc2ccc(NCc3ccc(F)cc3)nn12` [Example 32, 6-(4-Fluoro-benzylamino)-imidazo[1,2-b]pyridazine-3-carboxylic acid (4-hydroxy-phenyl)-amide] and `COc1ccc(NC(=O)c2cnc3ccc(NCc4ccc(F)cc4)nn23)cc1` [Example 11, 6-(4-Fluoro-benzylamino)-imidazo[1,2-b]pyridazine-3-carboxylic acid (4-methoxy-phenyl)-amide] are within 1.5-fold of each other in IC50: 70 nM for the first, 80 nM for the second.

Compared with `O=C(Nc1ccccc1)c1cnc2ccc(Oc3ccccc3)nn12` [Example 35, 6-Phenoxy-imidazo[1,2-b]pyridazine-3-carboxylic acid phenylamide], `O=C(Nc1ccccc1)c1cnc2ccc(OCc3ccccc3)nn12` [Example 34, 6-Benzyloxy-imidazo[1,2-b]pyridazine-3-carboxylic acid phenylamide] is 92-fold higher in IC50: 120 nM for the first, 11000 nM for the second. The first is the more potent here.

Going from `COc1ccc(CNc2ccc3nc(C)c(C(=O)Nc4ccccc4)n3n2)cc1` [Example 81, 6-(4-Methoxy-benzylamino)-2-methyl-imidazo[1,2-b]pyridazine-3-carboxylic acid phenylamide] to `Cc1nc2ccc(NCc3ccc(F)cc3)nn2c1C(=O)Nc1ccccc1` [Example 80, 6-(4-Fluoro-benzylamino)-2-methyl-imidazo[1,2-b]pyridazine-3-carboxylic acid phenylamide], the IC50 falls from 8870 nM to 4550 nM (1.9-fold).

Compared with `O=C(Nc1ccccc1)c1cnc2ccc(-n3cccc3)nn12` [Example 37, 6-Pyrrol-1-yl-imidazo[1,2-b]pyridazine-3-carboxylic acid phenylamide], `O=C(Nc1ccccc1)c1cnc2ccc(Nc3ccccc3)nn12` [Example 39, 6-Phenylamino-imidazo[1,2-b]pyridazine-3-carboxylic acid phenylamide] is 13-fold lower in IC50: 530 nM for the first, 40 nM for the second.

`O=C(Nc1cnc2ccc(Oc3ccccc3)nn12)c1ccccc1` [Example 98, N-(6-Phenoxy-imidazo[1,2-b]pyridazin-3-yl)-benzamide] and `O=C(Nc1cnc2ccc(-c3ccccc3)nn12)c1ccccc1` [Example 84, N-(6-Phenyl-imidazo[1,2-b]pyridazin-3-yl)-benzamide] are within 1.5-fold of each other in IC50: 4650 nM for the first, 5230 nM for the second.

Going from `CCNC(=O)c1cnc2ccc(NCc3ccc(Cl)c(Cl)c3)nn12` [Example 25, 6-(3,4-Dichloro-benzylamino)-imidazo[1,2-b]pyridazine-3-carboxylic acid ethylamide] to `COc1ccc(NC(=O)c2cnc3ccc(NCc4ccco4)nn23)cc1OC` [Example 15, 6-[(Furan-2-ylmethyl)-amino]-imidazo[1,2-b]pyridazine-3-carboxylic acid (3,4-dimethoxy-phenyl)-amide], the IC50 rises from 2200 nM to 4030 nM (1.8-fold).

First: CCS(=O)(=O)Nc1cnc2ccc(-c3ccccc3)nn12 [Example 85, Ethanesulfonic acid (6-phenyl-imidazo[1,2-b]pyridazin-3-yl)-amide]
Second: O=C(Nc1ccccc1)c1cnc2ccc(Oc3ccc(F)cc3)nn12 [Example 36]
The IC50 of the first is 7.7-fold higher: 17400 nM for the first, 2260 nM for the second.

`O=C(Nc1cnc2ccc(-n3ccnc3)nn12)c1ccc(O)cc1` [Example 103, 4-Hydroxy-N-(6-imidazol-1-yl-imidazo[1,2-b]pyridazin-3-yl)-benzamide] was tested, and the IC50 was 14400 nM.
